Results from paper PMC3293837, “Biophysical Property and Broad Anti-HIV Activity of Albuvirtide, a 3-Maleimimidopropionic Acid-Modified Peptide Fusion Inhibitor” (PLoS ONE, 2012).
Where two headings read alike, the source gives them in different places. Side chains are listed from the residue outwards. Peptide text beside a SMILES is read from it. * marks the point of attachment. Propanoyl(3-maleimido) = O=C1C=CC(=O)N1CCC(=O)*; AEEA = NCCOCCOCC(=O)O

Assays:
[1] = tested on: HIV-1NL4-3 V38A/N42T pseudovirus; assay type: cell-based
Procedure: (§1) HIV-1 pseudoviruses were generated as described previously [32], [55]–[56]. Briefly, 293T cells (5×10^6 cells in 15 ml of growth medium in a T-75 culture flask) were cotransfected with 10 µg of an Env-expressing plasmid and 20 µg of a backbone plasmid pSG3deltaEnv that encodes Env-defective, luciferase-expressing HIV-1 genome using Lipofectamine 2000 reagent (Invitrogen). Pseudovirus-containing culture supernatants were harvested 48 hours after transfection and filtered by 0.45-mm pore size, and stored at −80°C in 1-ml aliquots until use. The 50% tissue culture infectious dose (TCID50) of a single thawed aliquot of each pseudovirus batch was determined in TZM-bl cells. […] Briefly, the peptides were prepared with ten series dilutions in a 3-fold stepwise manner and mixed with 100 TCID50 viruses and incubated 1 hour at room temperature. The mixture was added to TZM-bl cells (10^4/well) and incubation at 37°C for 48 hours. Luciferase activity was measured using luciferase assay regents (Promega, Medison, WI) and a Luminescence Counter (Promega) according to the manufacture's instructions.

[2] = tested on: HIV-1NL4-3 I37T/N43K pseudovirus; assay type: cell-based
Procedure: (§2) The mutations were created using double-stranded DNA templates and selection of mutants with DpnI. For each mutation, the two primers contained the desired mutation and occupied the same starting and ending positions on opposite strands of the plasmid DNA. DNA synthesis was carried out by PCR in a 50-µL reaction volume using 1 µL of denatured plasmid template (1 ng/µL), 50 pmol of upper and lower primers and 5 U of high-fidelity thermostable polymerase PrimeStar (Takara, Dalian, China). PCR amplification was carried out for one cycle of denaturation at 98°C for 5 min, then 18 cycles of 98°C for 15 s and 68°C for 15 min, followed a final extension at 72°C for 10 min. The amplicons were treated with the restriction enzyme DpnI for 1 h at 37°C. DpnI-resistant molecules, which were rich in the desired mutants, were recovered by transforming Escherichia coli strain-DH5α to antibiotic resistance. The successful mutations were confirmed by sequencing.
as §1

[3] = tested on: HIV-1NL4-3 N43K pseudovirus; assay type: cell-based
Procedure: as §2, §1

[4] = tested on: HIV-1NL4-3 I37T pseudovirus; assay type: cell-based
Procedure: as §1

[5] = tested on: HIV-1NL4-3 V38M pseudovirus; assay type: cell-based
Procedure: as §1

[6] = tested on: HIV-1NL4-3 Env-pseudotyped virus; assay type: cell-based
Procedure: as §1

[7] = tested on: HIV-1NL4-3 Q40H pseudovirus; assay type: cell-based
Procedure: as §2, §1

[8] = tested on: HIV-1NL4-3 D36G pseudovirus; assay type: cell-based
Procedure: as §1

[9] = tested on: HIV-1NL4-3 V38A pseudovirus; assay type: cell-based
Procedure: as §1

[10] = tested on: HIV-1NL4-3 D36S/V38M pseudovirus; assay type: cell-based
Procedure: as §2, §1

[11] = monkeys, intravenous, ref [25], cited from earlier work
[12] = rats, intravenous, ref [25], cited from earlier work
[13] = after conjugation with serum albumin
[14] = value from which half-life was extended by albumin conjugation

For `Cc1cn([C@H]2C[C@H](N=[N+]=[N-])[C@@H](CO)O2)c(=O)[nH]c1=O` [AZT], the IC50 ([1]; HIV-1NL4-3 V38A/N42T, TZM-bl, 48 h, mean ± SD of three independent experiments) was 38.1 ± 3.7 nM, the “Fold change (in parentheses)” value ([1]; V38A/N42T, reference D36G) was 0.6 and the Fold change ([1]; V38A/N42T, reference wild-type) was 0.4. The IC50 ([2]; HIV-1NL4-3 I37T/N43K, TZM-bl, 48 h, mean ± SD of three independent experiments) was 139 ± 14.9 nM, the “Fold change (in parentheses)” value ([2]; I37T/N43K, reference D36G) was 2.3 and the Fold change ([2]; I37T/N43K, reference wild-type) was 1.3. For the same compound, the IC50 ([3]; HIV-1NL4-3 N43K, TZM-bl, 48 h, mean ± SD of three independent experiments) was 153 ± 7.4 nM, the “Fold change (in parentheses)” value ([3]; N43K, reference D36G) was 2.6 and the Fold change ([3]; N43K, reference wild-type) was 1.4. For the same compound, the IC50 ([4]; HIV-1NL4-3 I37T, TZM-bl, 48 h, mean ± SD of three independent experiments) was 93.5 ± 13.5 nM, the “Fold change (in parentheses)” value ([4]; I37T, reference D36G) was 1.6 and the Fold change ([4]; I37T, reference wild-type) was 0.9. For the same compound, the IC50 ([5]; HIV-1NL4-3 V38M, TZM-bl, 48 h, mean ± SD of three independent experiments) was 47.8 ± 3.7 nM, the “Fold change (in parentheses)” value ([5]; V38M, reference D36G) was 0.8 and the Fold change ([5]; V38M, reference wild-type) was 0.5. For the same compound, the IC50 ([6]; HIV-1NL4-3 WT pseudovirus, Table 3, TZM-bl, 48 h, mean ± SD of three independent experiments, read-out: IC50) was 107 ± 23.2 nM, the “Fold change (in parentheses)” value ([6]; WT, reference D36G) was 1.8 and the Fold change ([6]; WT, reference wild-type) was 1.0. For the same compound, the IC50 ([7]; HIV-1NL4-3 Q40H, TZM-bl, 48 h, mean ± SD of three independent experiments) was 33.2 ± 7.2 nM, the “Fold change (in parentheses)” value ([7]; Q40H, reference D36G) was 0.6 and the Fold change ([7]; Q40H, reference wild-type) was 0.3. The “Fold change (in parentheses)” value ([8]; D36G, reference D36G) was 1.0, the Fold change ([8]; D36G, reference wild-type) was 0.6 and the IC50 ([8]; HIV-1NL4-3 D36G, TZM-bl, 48 h, mean ± SD of three independent experiments) was 59.4 ± 5.9 nM. The IC50 ([9]; HIV-1NL4-3 V38A, TZM-bl, 48 h, mean ± SD of three independent experiments) was 42.3 ± 9 nM, the “Fold change (in parentheses)” value ([9]; V38A, reference D36G) was 0.7 and the Fold change ([9]; V38A, reference wild-type) was 0.4. The “Fold change (in parentheses)” value ([10]; D36S/V38M, reference D36G) was 0.7, the Fold change ([10]; D36S/V38M, reference wild-type) was 0.4 and the IC50 ([10]; HIV-1NL4-3 D36S/V38M, TZM-bl, 48 h, mean ± SD of three independent experiments) was 40.3 ± 8.6 nM.
In the case of `CC[C@H](C)[C@H](NC(=O)[C@H](CC(C)C)NC(=O)[C@H](CCC(=O)O)NC(=O)[C@H](Cc1c[nH]cn1)NC(=O)[C@@H](NC(=O)[C@H](CC(C)C)NC(=O)[C@H](CCCCNC(=O)COCCOCCNC(=O)CCN1C(=O)C=CC1=O)NC(=O)[C@@H](NC(=O)[C@H](Cc1ccc(O)cc1)NC(=O)[C@H](CC(N)=O)NC(=O)[C@H](CC(N)=O)NC(=O)[C@@H](NC(=O)[C@H](CCC(=O)O)NC(=O)[C@H](CCCNC(=N)N)NC(=O)[C@H](CC(=O)O)NC(=O)[C@H](Cc1c[nH]c2ccccc12)NC(=O)[C@H](CCC(=O)O)NC(=O)[C@H](CCC(=O)O)NC(=O)[C@H](Cc1c[nH]c2ccccc12)NC(C)=O)[C@@H](C)CC)[C@@H](C)O)[C@@H](C)CC)C(=O)N[C@@H](CCC(=O)O)C(=O)N[C@@H](CCC(=O)O)C(=O)N[C@@H](CO)C(=O)N[C@@H](CCC(N)=O)C(=O)N[C@@H](CC(N)=O)C(=O)N[C@@H](CCC(N)=O)C(=O)N[C@@H](CCC(N)=O)C(=O)N[C@@H](CCC(=O)O)C(=O)N[C@@H](CCCCN)C(=O)N[C@@H](CC(N)=O)C(=O)N[C@@H](CCC(=O)O)C(=O)N[C@@H](CCC(N)=O)C(=O)N[C@@H](CCC(=O)O)C(=O)N[C@@H](CC(C)C)C(=O)N[C@@H](CC(C)C)C(N)=O` [ABT] (Ac-WEEWDREINNYTK([AEEA-Propanoyl(3-maleimido)])LIHELIEESQNQQEKNEQELL-NH2), the “in vivo half-life (extended, 'to')” value [11, 13] is given as 102.4 h, the “in vivo half-life (before extension, 'from')” value [11, 14] is given as 10.89 h and the “in vivo half-life (extended, 'to')” value [12, 13] is given as 25.8 h. For the same compound, the “in vivo half-life (before extension, 'from')” value [12, 14] was 1.67 h.
